What was measured:
Type in all cases: cell-based
[1] = system: Human dermal fibroblasts from Friedreich's Ataxia patients; assay: Rescue of BSO-stressed FRDA fibroblasts (Calcein AM viability); conditions: BSO-stressed FRDA fibroblasts (GM04078), less than about 150 nM, read-out: EC50, protection against FRDA
Procedure, shortened: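 Patient FRDA fibroblasts (GM04078) seeded at 3,000 cells/well, given serially diluted compound from a 150 μM master solution, then stressed next day with 1 mM BSO.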

[2] = system: human dermal fibroblasts from Huntington's patients; assay: Rescue of BSO-stressed fibroblasts from Huntington's patients (screen as Example A); conditions: Fibroblast, BSO-stressed Huntington's fibroblasts (GM 04281), less than about 150 nM, read-out: EC50, protection against Huntington's
Procedure, shortened: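 Coriell Huntington's line GM 04281 plated at 3,000 cells/well and attached overnight at 37 °C. Survival was read by Calcein AM (1.2 μM, 50-70 min, RT) fluorescence at 485/525 nm, giving EC50.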

[3] = system: human dermal fibroblasts from LHON patients; assay: Rescue of BSO-stressed fibroblasts from LHON patients (screen as Example A); conditions: Fibroblast, BSO-stressed LHON fibroblasts (GM03858), less than about 150 nM, read-out: EC50, protection against LHON
Procedure, shortened: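 LHON patient fibroblasts (Coriell GM03858) at 3,000 cells/well were pre-treated overnight with compounds serially diluted from a 150 μM master solution. Surviving cells were stained with 1.2 μM Calcein AM for 50-70 min at RT and read by fluorescence (485/525 nm), giving EC50.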

[4] = system: human dermal fibroblasts from CoQ10 deficient patients; assay: Rescue of BSO-stressed fibroblasts from CoQ10 deficient patients (screen similar to Example A); conditions: Fibroblast, BSO-stressed fibroblasts from CoQ10 deficient patients harboring a CoQ2 mutation, less than about 150 nM, read-out: EC50, protection against CoQ10 deficiency
Protocol: (§1) A culture with FRDA fibroblasts was started from a 1 ml vial with approximately 500,000 cells stored in liquid nitrogen. Cells were propagated in 10 cm cell culture dishes by splitting every third day in a ratio of 1:3 until nine plates were available. Once confluent, fibroblasts were harvested. For 54 micro titer plates (96 well-MTP) a total of 14.3 million cells (passage eight) were re-suspended in 480 ml medium, corresponding to 100 μl medium with 3,000 cells/well. The remaining cells were distributed in 10 cm cell culture plates (500,000 cells/plate) for propagation. The plates were incubated overnight at 37° C. in an atmosphere with 95% humidity and 5% CO2 to allow attachment of the cells to the culture plate.
(§2) MTP medium (243 μl) was added to a well of the microtiter plate. The test compounds were unfrozen, and 7.5 μl of a 5 mM stock solution was dissolved in the well containing 243 μl medium, resulting in a 150 μM master solution. Serial dilutions from the master solution were made. The period between the single dilution steps was kept as short as possible (generally less than 1 second).
(§3) Plates were kept overnight in the cell culture incubator. The next day, 10 μl of a 10 mM BSO solution were added to the wells, resulting in a 1 mM final BSO concentration. Forty-eight hours later, three plates were examined under a phase-contrast microscope to verify that the cells in the 0% control (wells E1-H1) were clearly dead. The medium from all plates was discarded, and the remaining liquid was removed by gently tapping the plate inversed onto a paper towel.
(§4) 100 μl of PBS containing 1.2 μM Calcein AM were then added to each well. The plates were incubated for 50-70 minutes at room temperature. After that time the PBS was discarded, the plate gently tapped on a paper towel and fluorescence (excitation/emission wavelengths of 485 nm and 525 nm, respectively) was read on a Gemini fluorescence reader. Data was imported into Microsoft Excel (EXCEL is a registered trademark of Microsoft Corporation for a spreadsheet program) and used to calculate the EC50 concentration for each compound.
Compounds of the invention were tested using a screen similar to the one described in Example A, but substituting FRDA cells with cells obtained from CoQ10 deficient patients harboring a CoQ2 mutation. The compounds were tested for their ability to rescue human dermal fibroblasts from CoQ10 deficient patients from oxidative stress.

[5] = system: human dermal fibroblasts from Parkinson's Disease patients; assay: Rescue of BSO-stressed fibroblasts from Parkinson's Disease patients (screen as Example A); conditions: Fibroblast, BSO-stressed Parkinson's Disease fibroblasts (AG20439), less than about 150 nM, read-out: EC50, protection against PD
Protocol: as §1, §2, §3, §4
Compounds of the invention were screened as described in Example A, but substituting FRDA cells with Parkinson's Disease (PD) cells obtained from the Coriell Cell Repositories (Camden, N.J.; repository number AG20439). The compounds were tested for their ability to rescue human dermal fibroblasts from Parkinson's Disease patients from oxidative stress.

Measured: EC50

CC1=C(C)C(=O)C(CCNC(=O)NCc2ccc(C(F)(F)F)cc2)=C(C)C1=O [1-(4-(trifluoromethyl)benzyl)-3-(2-(2,4,5-trimethyl-3,6-dioxocyclohexa-1,4-dienyl)ethyl)urea]
not listed: [5]
< 150 nM: all other assays above

CC1=C(C)C(=O)C(CCNC(=O)N(C)Cc2ccc(Cl)cc2)=C(C)C1=O [1-(4-chlorobenzyl)-1-methyl-3-(2-(2,4,5-trimethyl-3,6-dioxocyclohexa-1,4-dienyl)ethyl)urea]
< 150 nM: [2] | [3] | [4]

CC1=C(C)C(=O)C(CCNC(=O)C2(c3ccccc3)CC2)=C(C)C1=O [1-phenyl-N-(2-(2,4,5-trimethyl-3,6-dioxocyclohexa-1,4-dienyl)ethyl)cyclopropanecarboxamide]
< 150 nM: [1] | [3] | [4]

CC1=C(C)C(=O)C(CCC(C)(C)C(N)=O)=C(C)C1=O [2,2-dimethyl-4-(2,4,5-trimethyl-3,6-dioxocyclohexa-1,4-dienyl)butanamide]
< 150 nM: all assays above

CC1=C(C)C(=O)C(CCCC(=O)N2CCCc3ccccc32)=C(C)C1=O [2-(4-(3,4-dihydroquinolin-1 (2H)-yl)-4-oxobutyl)-3,5,6-trimethylcyclohexa-2,5-diene-1,4-dione]
not listed: [5]
< 150 nM: all other assays above

CC1=C(C)C(=O)C(CCNC(=O)C(C)c2ccc(Cl)cc2)=C(C)C1=O (centres unmarked) [2-(4-chlorophenyl)-N-(2-(2,4,5-trimethyl-3,6-dioxocyclohexa-1,4-dienyl)ethyl)propanamide]
< 150 nM: [1] | [2] | [4]

COc1ccc(CC(=O)NCCC2=C(C)C(=O)C(C)=C(C)C2=O)cc1 [2-(4-methoxyphenyl)-N-(2-(2,4,5-trimethyl-3,6-dioxocyclohexa-1,4-dienyl)ethyl)acetamide]
not listed: [5]
< 150 nM: all other assays above

CC1=C(C)C(=O)C(CCNC(=O)Cc2cccc3ccccc23)=C(C)C1=O [2-(naphthalen-1-yl)-N-(2-(2,4,5-trimethyl-3,6-dioxocyclohexa-1,4-dienyl)ethyl)acetamide]
< 150 nM: [1] | [4]

CC1=C(C)C(=O)C(CCNC(=O)C(O)c2ccc(C(F)(F)F)cc2)=C(C)C1=O (centres unmarked) [2-hydroxy-2-(4-(trifluoromethyl)phenyl)-N-(2-(2,4,5-trimethyl-3,6-dioxocyclohexa-1,4-dienyl)ethyl)acetamide]
not listed: [5]
< 150 nM: all other assays above

CC1=C(C)C(=O)C(CCNC(=O)CCc2ccc(F)cc2)=C(C)C1=O [3-(4-fluorophenyl)-N-(2-(2,4,5-trimethyl-3,6-dioxocyclohexa-1,4-dienyl)ethyl)propanamide]
< 150 nM: [1] | [4]

CC1=C(C)C(=O)C(CCNC(=O)c2ccc(C#N)cc2)=C(C)C1=O [4-cyano-N-(2-(2,4,5-trimethyl-3,6-dioxocyclohexa-1,4-dienyl)ethyl)benzamide]
< 150 nM: [1] | [3] | [4]

CC1=C(C)C(=O)C(CCCC(=O)Nc2ccc3c(c2)OCCO3)=C(C)C1=O [N-(2,3-dihydrobenzo[b][1,4]dioxin-6-yl)-4-(2,4,5-trimethyl-3,6-dioxocyclohexa-1,4-dienyl)butanamide]
not listed: [5]
< 150 nM: all other assays above

CC1=C(C)C(=O)C(CCCC(=O)NCc2ccccc2F)=C(C)C1=O [N-(2-fluorobenzyl)-4-(2,4,5-trimethyl-3,6-dioxocyclohexa-1,4-dienyl)butanamide]
< 150 nM: [5] | [2] | [4]

CC1=C(C)C(=O)C(CCCC(=O)NCc2cccc(Cl)c2)=C(C)C1=O [N-(3-chlorobenzyl)-4-(2,4,5-trimethyl-3,6-dioxocyclohexa-1,4-dienyl)butanamide]
not listed: [1]
< 150 nM: all other assays above

CC1=C(C)C(=O)C(CCCC(=O)NCCc2cccc(Cl)c2)=C(C)C1=O [N-(3-chlorophenethyl)-4-(2,4,5-trimethyl-3,6-dioxocyclohexa-1,4-dienyl)butanamide]
not listed: [1]
< 150 nM: all other assays above

CC1=C(C)C(=O)C(CCCC(=O)Nc2cccc(C#N)c2)=C(C)C1=O [N-(3-cyanophenyl)-4-(2,4,5-trimethyl-3,6-dioxocyclohexa-1,4-dienyl)butanamide]
not listed: [5]
< 150 nM: all other assays above

CC1=C(C)C(=O)C(CCCC(=O)NCc2cccc(F)c2)=C(C)C1=O [N-(3-fluorobenzyl)-4-(2,4,5-trimethyl-3,6-dioxocyclohexa-1,4-dienyl)butanamide]
< 150 nM: [5] | [2] | [4]

CC1=C(C)C(=O)C(CCCC(=O)Nc2cccc(F)c2)=C(C)C1=O [N-(3-fluorophenyl)-4-(2,4,5-trimethyl-3,6-dioxocyclohexa-1,4-dienyl)butanamide]
not listed: [5]
< 150 nM: all other assays above

CC1=C(C)C(=O)C(CCCC(=O)NCC2(O)CC2)=C(C)C1=O [N-((1-hydroxycyclopropyl)methyl)-4-(2,4,5-trimethyl-3,6-dioxocyclohexa-1,4-dienyl)butanamide]
not listed: [5]
< 150 nM: all other assays above

CC1=C(C)C(=O)C(CCCC(=O)NCc2ccccc2)=C(C)C1=O [N-benzyl-4-(2,4,5-trimethyl-3,6-dioxocyclohexa-1,4-dienyl)butanamide]
not listed: [1]
< 150 nM: all other assays above

CC1=C(C)C(=O)C(CCCC(=O)NCCc2ccccc2)=C(C)C1=O [N-phenethyl-4-(2,4,5-trimethyl-3,6-dioxocyclohexa-1,4-dienyl)butanamide]
< 150 nM: [2] | [3] | [4]
